The test has as its system CEM cells HIV-1 protection, formazan growth assay. Nature of the test: NCI AIDS Antiviral Assay. Conditions: for IC50: measured here: growth of uninfected CEM cells. In outline: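 Soluble formazan readout of cell growth; CEM cells ± HIV-1; 5 drug concs. ≥50% protection → retest; ≥50% again = moderately active; reproducible 100% = confirmed active.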

Active and inactive are the calls of the source.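 The calls were made as follows: active = compounds giving half or more protection of infected cells from virus-caused growth loss, again on retest; inactive = the rest.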

By EC50 is commonly meant the concentration that produces a half-maximal response. Broadly, the IC50 is the concentration that gives 50% inhibition. The low end stands for greater potency, the high end for weaker potency. On to `C=CCOC(=O)NC1C(OC(C)[C@@H](NC(=O)OCc2ccccc2)C(=O)OC(C)(C)C)OC(COC(C)=O)C(OC(C)=O)C1OC(C)=O` (stereo not given in full), for which the EC50 was over 200 µM and the IC50 turned out to be 28.8 µM.

Regarding `Cc1cc(=O)oc2c(C)c(OCCCOc3ccc4c(C)cc(=O)oc4c3C)ccc12`, the EC50 was over 32.4 µM and the IC50 is over 32.4 µM. As to `Cc1ccc2nc3c(Cl)c(C)c(=O)cc-3sc2c1`, the EC50 is over 13.5 µM and the IC50 is over 13.5 µM. Consider `O=c1[nH]c(CCc2ccccc2)nc2ccccc12`, for which the EC50 was over 7.94 µM and the IC50 is over 7.94 µM. `CCOCc1ccccc1C1(O)c2ccccc2Oc2ccccc21` showed an EC50 of over 200 µM and an IC50 of 186 µM. As to `CCOC(=O)C1=C(O)c2c(sc(C)c2-c2ccccc2)N(S(=O)(=O)c2ccc(C)cc2)CC1`, the EC50 is over 100 µM and the IC50 is 4.79 µM. `O=C1CN(c2ccccc2)CC(=O)N2Cc3ccccc3CN12`: the EC50 is over 44.7 µM and the IC50 was over 44.7 µM. On to `O=C(Oc1ccc(OC(=O)c2ccccc2)c(C(=O)c2ccccc2)c1C(=O)c1ccccc1)c1ccccc1`, for which the EC50 was over 200 µM and the IC50 was over 200 µM. Turning to `CCOP(=O)(OCC)C1CC(n2cc(C)c(=O)[nH]c2=O)OC1CO` (stereo not given), the EC50 was over 200 µM and the IC50 is 182 µM.

With `CCN(CC)c1ccc2cc(-c3nc4ccccc4c(=O)[nH]3)c(=N)oc2c1`, the EC50 was over 100 µM and the IC50 is over 100 µM. Take `CCN(CC)CC(=O)Nc1cccc(C(=O)OC(C)C)c1`: the EC50 was over 200 µM and the IC50 was over 200 µM. On to `O=C(CC(=O)C(=O)Nc1ccccc1)CC(c1ccccc1)c1c(O)c2ccccc2oc1=O` (stereo not given), for which the EC50 was over 550 µM and the IC50 is 263 µM. For `CCP(=O)(OC)C1=CCN(C(=O)OCC[Si](C)(C)C)CC1` (stereo not given), in that order: over 200 µM and over 200 µM.

Turning to `CCc1cc2c(oc3c4ccccc4ccc23)c(=O)[nH]1`, the EC50 is over 200 µM and the IC50 was over 200 µM. On to `CO/C(=N\N=C\c1ccc(Cl)c(Cl)c1)c1ccncc1`, for which the EC50 is over 23.4 µM and the IC50 was over 23.4 µM.

With `CN(C)C(=NC#N)N(Cc1ccccc1)Cc1ccccc1`, the EC50 is over 200 µM and the IC50 amounted to 112 µM.

`CCOC(=O)/C(=C/c1ccc(Cl)cc1)N(CC)CC`: the EC50 is over 126 µM and the IC50 is over 126 µM.

For the molecule `CCOC(=O)c1cc(/C=C/C(C)=C/C(=O)OC)oc1C`, the EC50 is over 67.6 µM and the IC50 is over 67.6 µM. For the molecule `CC1(C)CC23C4COC(=O)C2CCC1C3CC4=O` (stereo not given), the EC50 is over 117 µM and the IC50 was found to be 4.07 µM. With `N/N=C1/CCN2CCCc3cccc1c32`, the EC50 was over 200 µM and the IC50 turned out to be 182 µM.

As to `COC(=O)CCCc1ccc2c(c1)CCC2`, the EC50 is over 200 µM and the IC50 was over 200 µM. With `Cc1cc2c(cc1C)C(=O)C1(C2)Cc2cc3c(cc2C1=O)CCC3` (stereo not given), the EC50 is over 100 µM and the IC50 was over 100 µM. Consider `Cn1cnc([N+](=O)[O-])c1Sc1nccc(=O)[nH]1`, for which the EC50 was over 977 µM and the IC50 is over 200 µM.

Take `CC(C)CCCC(C)[C@H]1CCC2[C@@H]1CC[C@@H]1[C@@]3(C)CC[C@H](CCC=C(c4cc(Cl)c(OCC(=O)O)c(C(=O)O)c4)c4cc(Cl)c(OCC(=O)O)c(C(=O)O)c4)C[C@@H]3CC[C@@]21C` (stereo not given in full): the EC50 was over 200 µM and the IC50 was 1.7 µM.

`COc1cccc(/C=C/C(=O)c2sc(C(N)=S)nc2C)c1O`: the EC50 is over 11.2 µM and the IC50 is over 11.2 µM. For `CCc1nn(Cc2ccccc2)c2nc(C)c(CCc3ccccc3)c(Cl)c12`, the EC50 was over 200 µM and the IC50 is over 200 µM. Turning to `CP1(=O)CC(=O)CCCCC(=O)C1`, the outcome was inactive. As to `O=C(C[N+]12CC=C(CO)C1C(O)CC2)c1ccc(Br)cc1` (stereo not given), the EC50 is over 575 µM and the IC50 is over 575 µM. With `COC(=O)c1cccc(COC(=O)c2cc(C(=CCC[C@H]3CC[C@@]4(C)[C@@H](CC[C@@H]5[C@@H]4CC[C@]4(C)[C@@H]([C@H](C)CCCC(C)C)CC[C@@H]54)C3)c3cc(Cl)c(OCc4cccc(C(=O)OC)c4)c(C(=O)OCc4cccc(C(=O)OC)c4)c3)cc(Cl)c2OCc2cccc(C(=O)OC)c2)c1`, the EC50 is over 200 µM and the IC50 is over 200 µM. `C=CCOC1=C(OCC=C)C(C2COC(C)(C)O2)OC1=O` (stereo not given): the EC50 was over 200 µM and the IC50 worked out at 70.8 µM. For `CN(C)CCN=C1Nc2ccccc2C(=S)N2CSCC12` (stereo not given), in that order: over 200 µM and over 200 µM.

`CCOC(=O)C1(C(=O)OCC)C(C(C)(C)C)=C(C)c2ccccc21`: the EC50 is over 50.1 µM and the IC50 was found to be 20.4 µM. As for `CCc1cccc(CC)c1NC(=O)CC1SC(N)=NC1=O` (stereo not given), the EC50 is over 427 µM and the IC50 was over 427 µM.

For `CCC(CC)(CC(=O)O)CC(=O)O`, the result was inactive. As to `CN1CCC2CC1c1ccn(C)c1C2=O` (stereo not given), the EC50 is over 1230 µM and the IC50 is over 1230 µM.

Take `COc1cc2c(cc1OC)C1Cc3ccccc3CCN1CC2` (stereo not given): the EC50 was over 200 µM and the IC50 was 126 µM. Turning to `CCOC(=O)C1(C(=O)OCC)C[C@@H](C)[C@@H](O)C1`, the EC50 is over 200 µM and the IC50 was over 200 µM. Consider `CC1=C(C(=O)Nc2ccc(Cl)c(Cl)c2)C(c2ccc([N+](=O)[O-])cc2)C(C(=O)Nc2ccc(Cl)c(Cl)c2)=C(C)N1`, for which the EC50 was over 8.71 µM and the IC50 worked out at 5.62 µM. For `N=c1c2ccccc2nnn1Cc1ccccc1`, in that order: over 178 µM and over 178 µM.

As to `O=C(CCc1ccccc1)NCCc1ccc(O)c(O)c1`, the EC50 was over 200 µM and the IC50 was determined as 14.8 µM. For `CCOC(=O)c1cnc(SCc2ccc(Cl)c(Cl)c2)nc1N1CC1C` (stereo not given), in that order: over 200 µM and 6.46 µM. On to `Cc1ccc2nc(-c3ccccc3Cl)[nH]c2c1`, for which the EC50 was 14.8 µM and the IC50 was determined as 29.5 µM. Consider `CCOC(=O)/C(=C\c1cc(OC)ccc1OC)P(=O)(OCC)OCC`, for which the EC50 was over 676 µM and the IC50 came to 9.77 µM. For `CC(=O)NC1=C(C)C(=O)c2c(nc3n2CCC3O)C1=N` (stereo not given), the EC50 was over 200 µM and the IC50 was found to be 24 µM. For `Cc1nn(C(=O)Cc2ccccc2)c2c1C(c1ccc3ccccc3c1O)SC(N)=N2` (stereo not given), in that order: over 200 µM and 24 µM. Regarding `CN1C(=S)N2CCCCCCCC2C(C#N)=C1N` (stereo not given), the EC50 is over 200 µM and the IC50 is over 200 µM. With `Cc1nnc2n(c1=O)CCN2C`, the EC50 was over 200 µM and the concentration for half-maximal inhibition (IC50) is over 200 µM. With `C[C@@]12[Se]c3ccccc3[C@]1(C)[Se]c1ccccc12`, the outcome was inactive.

For `Cc1cn(CCCCCCOC(=O)NC(CCCN=C(N)N)C(=O)O)c(=O)[nH]c1=O` (stereo not given), the EC50 was over 200 µM and the IC50 was over 200 µM. For `COc1cccc(/C=C2/S/C(=N/Nc3nc(C)c(C(C)=O)s3)NC2=O)c1O`, the EC50 was over 200 µM and the IC50 was 32.4 µM. As for `CCOC(=O)N1CCc2cc(OC)c(OC)c3c2C1CC3=O` (stereo not given), the outcome was inactive.

As to `CCOc1ccc(N=Nc2ccc(N)cc2N)cc1`, the EC50 is over 200 µM and the IC50 was determined as 107 µM. Regarding `CC1=CC=CC(C)(C)CC1(O[Si](C)(C)C)C(F)(F)F` (stereo not given), the EC50 was over 200 µM and the IC50 came to 148 µM. Taken in the same sequence, the figures for `CC(C)(C)C(=O)OCOP(=O)(OCOC(=O)C(C)(C)C)OCC1CCC(n2ccc(=O)[nH]c2=O)O1` (stereo not given) were 3.39 µM and 72.4 µM. Consider `O=C(NCc1ccccc1Cl)c1c(O)c2ccccc2[nH]c1=O`, for which the EC50 was over 200 µM and the IC50 was over 200 µM. `Cc1cc2nc(CCC(=O)O)c(=O)[nH]c2cc1C`: the EC50 is over 1000 µM and the IC50 is over 1000 µM.

With `OC1=CN=C(C2CC2)Oc2ccccc21`, the EC50 was over 178 µM and the IC50 was found to be 117 µM. For `CC1C2CC(CC2=O)C1(C)C` (stereo not given), in that order: over 1620 µM and over 1620 µM. For `COC1OC(Cn2c(C)nc(Br)c2Br)C(O)C(O)C1O` (stereo not given), in that order: 33.9 µM and over 200 µM. Taken in the same sequence, the figures for `Cc1cc2c(C)n(Cc3ccc(Cl)cc3Cl)nc2c(C(=O)O)c1C` were over 501 µM and 83.2 µM. Regarding `CC(=O)OC1C=CS(=O)(=O)C1` (stereo not given), the EC50 is over 200 µM and the IC50 was 15.8 µM.

Take `CN(Cc1cnc2nc(N)nc(N)c2n1)c1ccc(C(=O)N[C@@H](CCC(=O)O)C(=O)O)cc1`: the EC50 is over 1.51 µM and the IC50 came to 0.00372 µM. In the case of `COC(=O)/C(=C\Nc1cccc(C)n1)S(=O)(=O)c1ccc(C)cc1`, the EC50 is over 200 µM and the IC50 was found to be 66.1 µM. Taken in the same sequence, the figures for `COC(CN1C=C(Sc2ccccc2)CC1)OC` were over 97.7 µM and 16.6 µM. For `C=C(C)C(=O)OC1C/C(CO)=C\C(O)C/C(C)=C/C2OC(=O)C(=C)C21` (stereo not given), in that order: over 724 µM and 12.3 µM.

With `N[C@@H](CCC(=O)NC(Cc1ccccc1)C(=O)NCP(=O)(O)O)C(=O)O` (stereo not given in full), the EC50 is over 200 µM and the IC50 was over 200 µM. With `CN(C)C=Nc1cccc2cnccc12`, the EC50 is over 200 µM and the IC50 amounted to 166 µM.

For `Cn1c(-c2ccc(Br)cc2)cc2[nH]c(=S)nc(N)c2c1=O`, the EC50 was over 100 µM and the IC50 is over 100 µM. Take `CCOc1ccc(C2Oc3c(cccc3OC)C=C2[N+](=O)[O-])cc1OCC` (stereo not given): the EC50 is over 200 µM and the IC50 amounted to 3.02 µM. Taken in the same sequence, the figures for `Cc1cc(N(CCC#N)CCC#N)ccc1/C=C1N=C(/C=C\c2ccccc2)N(c2ccc(C(=O)O)cc2)C\1=O` were over 13.5 µM and over 13.5 µM. In the case of `O=[N+]([O-])/C(Cl)=C/C(=C1/Nc2ccccc2O1)[N+](=O)[O-]`, the EC50 is over 200 µM and the IC50 stood at 30.2 µM. Turning to `COC(=O)C(C(=O)C(=O)Nc1ccccc1C#N)c1nc2ccc([N+](=O)[O-])cc2[nH]c1=O` (stereo not given), the EC50 is over 16.6 µM and the IC50 was over 16.6 µM.
